Patent publication US9738634B2, “Heterocyclic amide compound and herbicide” (SYNGENTA PARTICIPATIONS AG, priority 2013, dated 2017)

How the values were obtained:
Type in all cases: in vivo
Conditions in all cases: treatment dosage 320 g/ha
fig-leafed goosefoot [1] = assay: Test Example 4: weedkilling efficacy by foliar treatment; M: fig-leafed goosefoot
How it was run: (§1)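 Seeds are spot-sown into sterilized diluvial soil and covered with about 1.5 cm of soil. After 14 days' greenhouse growth at 25 to 30° C, plants are sprayed on stems and leaves with diluted emulsion at the stated g/ha rate, then scored at 3 weeks.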

crabgrass [2] = assay: Test Example 4: weedkilling efficacy by foliar treatment; D: crabgrass
How it was run: as §1

barnyard grass [3] = assay: Test Example 3: weedkilling efficacy through soil treatment; F: barnyard grass
How it was run: (§2)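 Crop and weed responses were judged three weeks after a uniform surface spray of the water-diluted emulsion at the given g/ha rate. Seeds sat beneath about 1.5 cm of sterilized diluvial soil, and boxes stood in a greenhouse at 25 to 30° C.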

black-grass [4] = assay: Test Example 3: weedkilling efficacy through soil treatment; H: black-grass
How it was run: as §2

wheat [5] = assay: Test Example 4: foliar treatment, effect on crop; e: wheat
How it was run: as §1

Italian ryegrass [6] = assay: Test Example 4: weedkilling efficacy by foliar treatment; I: Italian ryegrass
How it was run: as §1

redroot pigweed [7] = assay: Test Example 4: weedkilling efficacy by foliar treatment; L: redroot pigweed
How it was run: as §1

bulrush [8] = assay: Test Example 2: weedkilling efficacy, growth period weed treatment in the submerged state; B: bulrush
How it was run: (§3)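 Seedlings at 1-2 leaves in 4 cm-deep submerged alluvial soil received emulsion formulations on the water surface, dosed per hectare; effects were judged 3 weeks on.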

chickweed [9] = assay: Test Example 4: weedkilling efficacy by foliar treatment; N: chickweed
How it was run: as §1

common wind-grass [10] = assay: Test Example 3: weedkilling efficacy through soil treatment; J: common wind-grass
How it was run: as §2

rapeseed [11] = assay: Test Example 4: foliar treatment, effect on crop; g: rapeseed
How it was run: as §1

beet [12] = assay: Test Example 3: soil treatment, effect on crop; f: beet
How it was run: as §2

beet [13] = assay: Test Example 4: foliar treatment, effect on crop; f: beet
How it was run: as §1

barnyard grass [14] = assay: Test Example 4: weedkilling efficacy by foliar treatment; F: barnyard grass
How it was run: as §1

rapeseed [15] = assay: Test Example 3: soil treatment, effect on crop; g: rapeseed
How it was run: as §2

birds-eye speedwell [16] = assay: Test Example 3: weedkilling efficacy through soil treatment; p: birds-eye speedwell
How it was run: as §2

fig-leafed goosefoot [17] = assay: Test Example 3: weedkilling efficacy through soil treatment; M: fig-leafed goosefoot
How it was run: as §2

barnyard grass [18] = assay: Test Example 2: weedkilling efficacy, growth period weed treatment in the submerged state; A: barnyard grass
How it was run: as §3

green foxtail [19] = assay: Test Example 4: weedkilling efficacy by foliar treatment; E: green foxtail
How it was run: as §1

barnyard grass [20] = assay: Test Example 1: weedkilling efficacy, preemergent weed treatment in the submerged state; A: barnyard grass
How it was run: (§4)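 Submerged pre-emergence treatment, water-surface application of compound emulsion at g/ha dosages; 4 cm flooded alluvial soil, weeds sown and 2.5-leaf rice transplanted same day. Rated after 3 weeks, greenhouse.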

wild oat [21] = assay: Test Example 4: weedkilling efficacy by foliar treatment; G: wild oat
How it was run: as §1

corn [22] = assay: Test Example 3: soil treatment, effect on crop; c: corn
How it was run: as §2

catchweed [23] = assay: Test Example 3: weedkilling efficacy through soil treatment; O: catchweed
How it was run: as §2

chickweed [24] = assay: Test Example 3: weedkilling efficacy through soil treatment; N: chickweed
How it was run: as §2

Italian ryegrass [25] = assay: Test Example 3: weedkilling efficacy through soil treatment; I: Italian ryegrass
How it was run: as §2

soybean [26] = assay: Test Example 3: soil treatment, effect on crop; d: soybean
How it was run: as §2

directly sown rice [27] = assay: Test Example 4: foliar treatment, effect on crop; b: directly sown rice
How it was run: as §1

corn [28] = assay: Test Example 4: foliar treatment, effect on crop; c: corn
How it was run: as §1

bulrush [29] = assay: Test Example 1: weedkilling efficacy, preemergent weed treatment in the submerged state; B: bulrush
How it was run: as §4

Indian mallow [30] = assay: Test Example 3: weedkilling efficacy through soil treatment; K: Indian mallow
How it was run: as §2

black-grass [31] = assay: Test Example 4: weedkilling efficacy by foliar treatment; H: black-grass
How it was run: as §1

soybean [32] = assay: Test Example 4: foliar treatment, effect on crop; d: soybean
How it was run: as §1

catchweed [33] = assay: Test Example 4: weedkilling efficacy by foliar treatment; O: catchweed
How it was run: as §1

birds-eye speedwell [34] = assay: Test Example 4: weedkilling efficacy by foliar treatment; p: birds-eye speedwell
How it was run: as §1

Indian mallow [35] = assay: Test Example 4: weedkilling efficacy by foliar treatment; K: Indian mallow
How it was run: as §1

wheat [36] = assay: Test Example 3: soil treatment, effect on crop; e: wheat
How it was run: as §2

oval-leafed pondweed [37] = assay: Test Example 1: weedkilling efficacy, preemergent weed treatment in the submerged state; C: oval-leafed pondweed
How it was run: as §4

green foxtail [38] = assay: Test Example 3: weedkilling efficacy through soil treatment; E: green foxtail
How it was run: as §2

common wind-grass [39] = assay: Test Example 4: weedkilling efficacy by foliar treatment; J: common wind-grass
How it was run: as §1

crabgrass [40] = assay: Test Example 3: weedkilling efficacy through soil treatment; D: crabgrass
How it was run: as §2

wild oat [41] = assay: Test Example 3: weedkilling efficacy through soil treatment; G: wild oat
How it was run: as §2

directly sown rice [42] = assay: Test Example 3: soil treatment, effect on crop; b: directly sown rice
How it was run: as §2

oval-leafed pondweed [43] = assay: Test Example 2: weedkilling efficacy, growth period weed treatment in the submerged state; C: oval-leafed pondweed
How it was run: as §3

redroot pigweed [44] = assay: Test Example 3: weedkilling efficacy through soil treatment; L: redroot pigweed
How it was run: as §2

transplanted rice = assay: Test Example 1: preemergent weed treatment in the submerged state, effect on crop; a: transplanted rice
How it was run: as §4

COc1cc(C(F)(F)F)cc(NC(=O)C(C)(C)N2COC(C)=C(c3cccnc3F)C2=O)n1 [B-2-14]
M (fig-leafed goosefoot) weedkilling efficacy grade (fig-leafed goosefoot [1]): 4 (weed kill ratio 70% or more, less than 90%)
D (crabgrass) weedkilling efficacy grade (crabgrass [2]): 4 (weed kill ratio 70% or more, less than 90%)
F (barnyard grass) weedkilling efficacy grade (barnyard grass [3]): 5 (weed kill ratio 90% or more, (practically complete withering))
H (black-grass) weedkilling efficacy grade (black-grass [4]): 5 (weed kill ratio 90% or more, (practically complete withering))
e (wheat) effect on crop grade (wheat [5]): 0 (weed kill ratio 5% or less (practically no effect))
I (Italian ryegrass) weedkilling efficacy grade (Italian ryegrass [6]): 5 (weed kill ratio 90% or more, (practically complete withering))
L (redroot pigweed) weedkilling efficacy grade (redroot pigweed [7]): 4 (weed kill ratio 70% or more, less than 90%)
B (bulrush) weedkilling efficacy grade (bulrush [8]): 4 (weed kill ratio 70% or more, less than 90%)
N (chickweed) weedkilling efficacy grade (chickweed [9]): 4 (weed kill ratio 70% or more, less than 90%)
J (common wind-grass) weedkilling efficacy grade (common wind-grass [10]): 5 (weed kill ratio 90% or more, (practically complete withering))
g (rapeseed) effect on crop grade (rapeseed [11]): 4 (weed kill ratio 70% or more, less than 90%)
f (beet) effect on crop grade (beet [12]): 3 (weed kill ratio 40% or more, less than 70%)
f (beet) effect on crop grade (beet [13]): 3 (weed kill ratio 40% or more, less than 70%)
F (barnyard grass) weedkilling efficacy grade (barnyard grass [14]): 4 (weed kill ratio 70% or more, less than 90%)
g (rapeseed) effect on crop grade (rapeseed [15]): 1 (weed kill ratio 5% or more, less than 20%)
P (birds-eye speedwell) weedkilling efficacy grade (birds-eye speedwell [16]): 4 (weed kill ratio 70% or more, less than 90%)
M (fig-leafed goosefoot) weedkilling efficacy grade (fig-leafed goosefoot [17]): 3 (weed kill ratio 40% or more, less than 70%)
A (barnyard grass) weedkilling efficacy grade (barnyard grass [18]): 4 (weed kill ratio 70% or more, less than 90%)
E (green foxtail) weedkilling efficacy grade (green foxtail [19]): 5 (weed kill ratio 90% or more, (practically complete withering))
A (barnyard grass) weedkilling efficacy grade (barnyard grass [20]): 5 (weed kill ratio 90% or more, (practically complete withering))
G (wild oat) weedkilling efficacy grade (wild oat [21]): 4 (weed kill ratio 70% or more, less than 90%)
c (corn) effect on crop grade (corn [22]): 0 (weed kill ratio 5% or less (practically no effect))
O (catchweed) weedkilling efficacy grade (catchweed [23]): 4 (weed kill ratio 70% or more, less than 90%)
N (chickweed) weedkilling efficacy grade (chickweed [24]): 3 (weed kill ratio 40% or more, less than 70%)
I (Italian ryegrass) weedkilling efficacy grade (Italian ryegrass [25]): 5 (weed kill ratio 90% or more, (practically complete withering))
d (soybean) effect on crop grade (soybean [26]): 0 (weed kill ratio 5% or less (practically no effect))
b (directly sown rice) effect on crop grade (directly sown rice [27]): 3 (weed kill ratio 40% or more, less than 70%)
c (corn) effect on crop grade (corn [28]): 3 (weed kill ratio 40% or more, less than 70%)
B (bulrush) weedkilling efficacy grade (bulrush [29]): 5 (weed kill ratio 90% or more, (practically complete withering))
K (Indian mallow) weedkilling efficacy grade (Indian mallow [30]): 0 (weed kill ratio 5% or less (practically no effect))
H (black-grass) weedkilling efficacy grade (black-grass [31]): 5 (weed kill ratio 90% or more, (practically complete withering))
d (soybean) effect on crop grade (soybean [32]): 3 (weed kill ratio 40% or more, less than 70%)
O (catchweed) weedkilling efficacy grade (catchweed [33]): 4 (weed kill ratio 70% or more, less than 90%)
P (birds-eye speedwell) weedkilling efficacy grade (birds-eye speedwell [34]): 4 (weed kill ratio 70% or more, less than 90%)
K (Indian mallow) weedkilling efficacy grade (Indian mallow [35]): 5 (weed kill ratio 90% or more, (practically complete withering))
e (wheat) effect on crop grade (wheat [36]): 0 (weed kill ratio 5% or less (practically no effect))
C (oval-leafed pondweed) weedkilling efficacy grade (oval-leafed pondweed [37]): 4 (weed kill ratio 70% or more, less than 90%)
E (green foxtail) weedkilling efficacy grade (green foxtail [38]): 5 (weed kill ratio 90% or more, (practically complete withering))
J (common wind-grass) weedkilling efficacy grade (common wind-grass [39]): 5 (weed kill ratio 90% or more, (practically complete withering))
D (crabgrass) weedkilling efficacy grade (crabgrass [40]): 5 (weed kill ratio 90% or more, (practically complete withering))
G (wild oat) weedkilling efficacy grade (wild oat [41]): 5 (weed kill ratio 90% or more, (practically complete withering))
b (directly sown rice) effect on crop grade (directly sown rice [42]): 4 (weed kill ratio 70% or more, less than 90%)
C (oval-leafed pondweed) weedkilling efficacy grade (oval-leafed pondweed [43]): 4 (weed kill ratio 70% or more, less than 90%)
L (redroot pigweed) weedkilling efficacy grade (redroot pigweed [44]): 3 (weed kill ratio 40% or more, less than 70%)
a (transplanted rice) effect on crop grade (transplanted rice): 3 (weed kill ratio 40% or more, less than 70%)
